Source: US8143402B2, “Polymorphic forms of a macrocyclic inhibitor of HCV” (Tibotec Pharmaceuticals Ltd., priority 2007, dated 2012)
Read-outs that look alike come from different tables or passages of the source.

Assays:
Type in all cases: physicochemical
[1] = Stability of the polymorphic forms; settings: compared among the polymorphic forms
[2] = Solubility of Form I and Form II in different solvents (excess shaken 24 hours at 20° C., filtration, UV spectrometry); settings: for solubility thermodynamic at 24 h: thermodynamic from solid, read-out: Solubility in g/100 mL of solution
Description: An excess of product (Form I or Form II, where appropriate) was shaken with the relevant solvent during 24 hours at 20° C. After filtration, the concentration of the product in solution was determined with UV spectrometry.

[3] = Intrinsic dissolution; settings: compared with Form I
[4] = Hygroscopicity of the polymorphic forms; settings: compared among the polymorphic forms
[5] = 1-methoxy-2-propanol, 24 hours at 20° C.
[6] = 2-propanol/dichloromethane (97/3) (v/v), 24 hours at 20° C.
[7] = 2-propanone, 24 hours at 20° C.
[8] = 4-methyl-2-pentanone, 24 hours at 20° C.
[9] = acetonitrile, 24 hours at 20° C.
[10] = ethanol/water (95/5) (v/v), 24 hours at 20° C.

| Compound | Stability of the polymorph form [1] | Solubility in g/100 mL of solution [2, 5] [g/100 mL] | Solubility in g/100 mL of solution ([2]; 2-butanone, 24 hours at 20° C.) [g/100 mL] | Solubility in g/100 mL of solution [2, 6] [g/100 mL] | Solubility in g/100 mL of solution ([2]; 2-propanol, 24 hours at 20° C.) [g/100 mL] | Solubility in g/100 mL of solution [2, 7] [g/100 mL] | Solubility in g/100 mL of solution [2, 8] [g/100 mL] | Solubility in g/100 mL of solution [2, 9] [g/100 mL] | Solubility in g/100 mL of solution [2, 10] [g/100 mL] | Solubility in g/100 mL of solution ([2]; ethanol, 24 hours at 20° C.) [g/100 mL] | Solubility in g/100 mL of solution ([2]; methanol, 24 hours at 20° C.) [g/100 mL] | Solubility in g/100 mL of solution ([2]; toluene, 24 hours at 20° C.) [g/100 mL] | further results |
| --- | --- | --- | --- | --- | --- | --- | --- | --- | --- | --- | --- | --- | --- |
| COc1ccc2c(O[C@@H]3C[C@H]4C(=O)N[C@]5(C(=O)NS(=O)(=O)C6CC6)C[C@H]5/C=C\CCCCN(C)C(=O)[C@@H]4C3)cc(-c3nc(C(C)C)cs3)nc2c1C [Form II] | less stable but nevertheless sufficiently stable | 1.6 | 2.5 | 0.19 | 0.11 | 1.2 | 0.81 | 0.20 | 0.27 | 0.17 | 0.29 | 0.43 | Solubility in g/100 mL of solution ([2]; 1-butanol, 24 hours at 20° C.): 0.31 g/100 mL; Intrinsic dissolution [3]: greater than that of Form I |
| COc1ccc2c(O[C@@H]3C[C@H]4C(=O)N[C@]5(C(=O)NS(=O)(=O)C6CC6)C[C@H]5/C=C\CCCCN(C)C(=O)[C@@H]4C3)cc(-c3nc(C(C)C)cs3)nc2c1C [Form I] | most stable form | 0.82 | 0.87 | 0.045 | 0.027 | 0.66 | 0.28 | 0.075 | 0.078 | 0.050 | 0.056 | 0.086 | Solubility in g/100 mL of solution ([2]; N,N-dimethylacetamide*, 125 mg of Form I was dissolved in 0.5 mL of N,N-dimethylacetamide): >20 g/100 mL; Solubility in g/100 mL of solution ([2]; N,N-dimethylacetamide, 24 hours at 20° C.): 16 g/100 mL; Solubility in g/100 mL of solution ([2]; acetic acid, 24 hours at 20° C.): 1.7 g/100 mL; solubility thermodynamic at 24 h ([2]; aqueous with cosolvent or surfactant or cyclodextrin, acetic acid/water (10/90) (v/v) (pH = 2.2), 24 hours at 20° C.): < 10 µg/mL; Solubility in g/100 mL of solution ([2]; dichloromethane, 24 hours at 20° C.): 8.5 g/100 mL; Solubility in g/100 mL of solution ([2]; ethyl acetate, 24 hours at 20° C.): 0.21 g/100 mL; Solubility in g/100 mL of solution ([2]; methanol/dichloromethane (50/50) (v/v), 24 hours at 20° C.): 8.3 g/100 mL; Solubility in g/100 mL of solution ([2]; tetrahydrofuran, 24 hours at 20° C.): 7.0 g/100 mL; solubility thermodynamic at 24 h ([2]; water (pH = 5.0), 24 hours at 20° C.): < 10 µg/mL; Hygroscopicity [4]: least hygroscopic form |
